For ten molecules, IC50 results are on record in patent publication US20110098296A1, “Thiazole And Oxazole Kinase Inhibitors” (priority 2007, published 2011).

The test system of one test is Colo205 tumor cells. As to the kind of experiment: Method C: Cell Growth Inhibition Assay (CellTiter-Glo), Colo205. The test is classed as cell-based. The following applies: Homo sapiens, COLO 205, 72 h, 3 days, 4-parameter fit. The method, then:
(§1) Human breast tumor cells (BT474) were cultured in RPMI (Mediatech 50-011-PB), containing 10% FBS (JRH Biosciences 12176) and 1% penicillin-streptomycin (Invitrogen 15140). Human head and neck tumor cells (HN5) were cultured in high glucose DMEM (Mediatech 50-013-PB) containing 10% FBS and 1% penicillin-streptomycin. Human colon tumor cells (Colo205) were cultured in RPMI (Mediatech 50-020-PB) containing 10% FBS and 1% penicillin-streptomycin. Human melanoma cancer cells (SK-MEL-28) were cultured in EMEM with nonessential amino acids (Mediatech 50-011-PB) containing 10% FBS, 1% sodium pyruvate (JT Baker 3354-04), and 1% penicillin-streptomycin. Human melanoma cancer cells (A375P F11s) were cultured in RPMI (Mediatech 50-020-PB) containing 10% FBS, 1% sodium pyruvate, and 1% penicillin-streptomycin. Human colon cancer cells (HT-29) were cultured in high glucose DMEM (Mediatech 50-013-PB) containing 10% FBS and 1% penicillin-streptomycin. Human melanoma cancer cells (SK-MEL-3) were cultured in McCoy's 5A (50-025-PB) containing 15% FBS, and 1% penicillin-streptomycin. All cell lines were maintained at 37° C. in a humidified 5% CO2, 95% air incubator. Cells were harvested using trypsin/EDTA (Invitrogen 25200), counted using an haemocytometer, and plated. For 96-well assays (using white full-area NUNC plates cat. #136102), cells were plated in 105 μL at the following densities (cells/well): HN5, 500; Colo205, 500; SK-MEL-28, 500; A375P-F11s, 500; HT-29, 500; SK-MEL-3, 500; and BT474, 3000. For 384-well assays (white full-area NUNC plates, cat. #781080), cells were plated in 48 μL at the following densities (cells/well): HN5, 500; Colo205, 500; SK-MEL-28, 500; A375P-F11s, 500; HT29, 500; SK-MEL-3, 500; and BT474, 2000.
(§2) The next day, compounds were diluted as follow: For 96-well assays, 13.5 μL of compound in DMSO were diluted using nine (9) serial 1:3 dilutions of 4.5 μL in 9 μL of DMSO. Medium (270 μl/well of RPMI with 10% FBS and 1% penicillin-streptomycin) was added to the plates. Aliquots (7 μl) were added to cells in the final assay giving a final DMSO concentration of 0.2%. For 384-well assays, 15 μL of compound in DMSO were diluted using nine (9) serial 1:3 dilutions of 5 μL in 10 μL of DMSO, followed by a further dilution of 5 μL of compound with 95 μL of medium, of which 2 μL were added to cells in the final assay giving a final DMSO concentration of 0.2%. Cells were incubated at 37° C., 5% CO2 for 3 days.
(§3) Total ATP was measured (as a surrogate estimate of cell number) using CellTiter-Glo® reagent (Promega G7571). Briefly, plates were removed from the incubator and allowed to equilibrate to room temperature for 30 minutes. CellTiter-Glo® (25 μL or 55 μL for 384-well or 96-well assays, respectively) reagent was added to each well and plates were shaken on an orbital plate shaker for 2 mins. Plates were incubated without shaking for a further 30 mins and read on an LJL Analyst GT reader in luminometer mode with an integration time of 0.5 seconds per well. Percent inhibition of cell growth was calculated relative to DMSO vehicle-treated control wells. Concentration of compound required to give 50% inhibition of vehicle-treated control cell growth (IC50) was interpolated using a 4-parameter fit for determining IC50 using the following equation: Y=A+((B−A)/(1+((C/X)̂D))) where X=IC50.

For another test, the system named is SK-MEL-28 tumor cells. As to the kind of experiment: Method C: Cell Growth Inhibition Assay (CellTiter-Glo), SK-MEL-28. The test is classed as cell-based. The following applies: Homo sapiens, SK-MEL-28, 72 h, 3 days, 4-parameter fit. The method, then: as §1, §2, §3
The next test addresses T1, EGFR (Homo sapiens, UniProt P00533).
T1 construct: made in house; host or cells: baculovirus expression system
As to the kind of experiment: EGFR substrate phosphorylation assay (HTRF). The test is classed as biochemical. To be noted: Method (A): Enzyme Mix incubated with compound at 20° C. for 1 hr, reaction started by adding Substrate Mix. The method, then: (§4) Compounds of the present invention were tested for EGFR and ErbB-2 protein tyrosine kinase inhibitory activity in substrate phosphorylation assays using enzymes purified from a baculovirus expression system. Reagent production was conducted essentially as described in Brignola, P. S., et al., (2002) J. Biol. Chem. 277(2):1576-1585.
(§5) The method measures the ability of the isolated enzyme to catalyse the transfer of the gamma-phosphate from ATP onto the tyrosine residue of a biotinylated synthetic peptide referenced “Peptide C” in Brignola, P. S., et al., (2002) J. Biol. Chem. 277(2):1576-1585. The extent of tyrosine phosphorylation was measured using an anti-phosphotyrosine antibody, and quantified by homogenous time-resolved fluorescence (HTRF).
(§6) Reactions were performed in black 384-well polystyrene flat-bottom plates in a final volume of 20 μl. Assays were performed by adding 10 μl of each of the following solutions, Substrate Mix and Enzyme Mix: The Substrate Mix contained 100 mM 3-[N-morpholino]propanesulfonic acid (MOPS) (pH 7.5), 2 mM MnCl2, 20 μM ATP, 0.01% Tween-20, 0.1 mg/mL (BSA), 0.8 uM peptide substrate, and 1 mM dithiothreitol. The Enzyme Mix contained 100 mM MOPS (pH 7.5); 0.01% Tween-20; 0.1 mg/mL BSA, and either 0.8 nM EGFR, 10 nM ErbB2, or 1 nM ErbB4
(§7) During the course of these studies, two separate methods have been used to measure the potency of compounds. In Method A (indicated as “(A)” in the tables below), the Enzyme Mix was added to the compound plates and the plates were incubated at 20° C. for 1 hr. The reactions were then started by adding the Substrate Mix. In Method B (indicated as “(B)” in the tables below), the Substrate Mix was added to the compound plates first, then the reaction was started by adding the Enzyme Mix.
(§8) After initiating the reaction with either method describe above, the reactions were allowed to proceed for 90 minutes at 20° C. The reactions were then terminated by the addition of 20 μL 100 mM EDTA to each well. 40 μL/well of HTRF detection mix were added to the assay plates. The final concentrations of the detection reagents were: 100 mM HEPES (pH7.5), 0.1 mg/mL BSA, 15 nM streptavidin-labeled allophycocyanin (PerkinElmer), and 1 nM europium-labeled anti-phosphotyrosine antibody (PerkinElmer). Assay plates were left unsealed and were counted in a Wallac Multilabel Counter 1420 (PerkinElmer).
(§9) Compounds under analysis were dissolved in dimethylsulfoxide (DMSO) to 1.0 mM and serially diluted 1 to 3 with DMSO through twelve dilutions. 1 μL of each concentration was transferred to the corresponding well of an assay plate. This creates a final compound concentration range from 0.00027 to 47.6 μM.
(§10) The data for dose responses were plotted as % Inhibition calculated with the data reduction formula 100*(1−(U1−C2)/(C1−C2)) versus concentration of compound where U1 is the unknown value, C1 is the average control value obtained for 4.76% DMSO, and C2 is the average control value obtained for 0.035 M EDTA. Data were fitted with a curve described by:
(§11) where Vmax is the upper asymptote, Y2 is the Y intercept, and K is the IC50. The results for each compound were recorded as pIC50s, calculated as follows: […]
Background: In TR-FRET formats the signal depends on donor and acceptor labels being close together.

The test system of another test is BT474 tumor cells. In words: Method C: Cell Growth Inhibition Assay (CellTiter-Glo), BT474. The test is classed as cell-based. To be noted: Homo sapiens, BT-474, 72 h, 3 days, 4-parameter fit. Here is the method: as §1, §2, §3
(In ATP-based viability assays light output follows the ATP content of the culture.)

For the next test, the target named is T2, ErbB2 (Homo sapiens, UniProt P04626).
T2 construct: made in house; host or cells: baculovirus expression system
In words: ErbB-2 substrate phosphorylation assay (HTRF). The format is biochemical. The following applies: Method (A): Enzyme Mix incubated with compound at 20° C. for 1 hr, reaction started by adding Substrate Mix. The method, then: as §4, §5, §6, §7, §8, §9, §10, §11

Structures can show the parent of a compound that is named as a salt.

T1 sequence (P00533 25-1210): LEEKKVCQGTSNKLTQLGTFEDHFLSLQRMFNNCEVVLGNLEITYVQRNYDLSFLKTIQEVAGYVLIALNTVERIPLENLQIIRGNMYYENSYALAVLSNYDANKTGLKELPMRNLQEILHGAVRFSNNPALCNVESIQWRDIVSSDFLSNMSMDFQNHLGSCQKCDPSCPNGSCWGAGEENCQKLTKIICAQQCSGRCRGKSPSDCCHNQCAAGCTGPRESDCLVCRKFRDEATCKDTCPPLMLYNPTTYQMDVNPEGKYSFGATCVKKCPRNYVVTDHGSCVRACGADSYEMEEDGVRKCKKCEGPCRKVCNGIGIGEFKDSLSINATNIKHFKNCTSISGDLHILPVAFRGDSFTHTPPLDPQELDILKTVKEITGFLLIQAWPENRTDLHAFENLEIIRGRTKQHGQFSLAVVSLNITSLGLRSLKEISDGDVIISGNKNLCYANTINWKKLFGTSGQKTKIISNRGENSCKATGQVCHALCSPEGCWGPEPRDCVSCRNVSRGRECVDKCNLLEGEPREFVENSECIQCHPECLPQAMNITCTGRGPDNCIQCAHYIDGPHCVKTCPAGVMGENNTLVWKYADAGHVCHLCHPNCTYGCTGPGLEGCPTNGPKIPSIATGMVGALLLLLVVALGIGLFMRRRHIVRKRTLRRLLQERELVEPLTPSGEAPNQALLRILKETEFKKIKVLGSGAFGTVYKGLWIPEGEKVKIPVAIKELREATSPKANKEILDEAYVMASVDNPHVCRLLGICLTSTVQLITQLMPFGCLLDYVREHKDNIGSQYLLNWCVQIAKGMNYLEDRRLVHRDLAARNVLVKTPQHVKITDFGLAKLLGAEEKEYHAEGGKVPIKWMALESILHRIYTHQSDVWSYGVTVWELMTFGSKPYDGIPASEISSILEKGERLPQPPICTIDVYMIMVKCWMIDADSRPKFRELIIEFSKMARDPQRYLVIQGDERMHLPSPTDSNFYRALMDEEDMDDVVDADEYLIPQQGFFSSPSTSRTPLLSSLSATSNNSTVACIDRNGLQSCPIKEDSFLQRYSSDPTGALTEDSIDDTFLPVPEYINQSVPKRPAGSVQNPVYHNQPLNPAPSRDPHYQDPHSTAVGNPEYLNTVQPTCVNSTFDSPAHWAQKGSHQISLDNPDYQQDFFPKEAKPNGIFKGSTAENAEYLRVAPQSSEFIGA
T2 sequence (P04626 23-1255): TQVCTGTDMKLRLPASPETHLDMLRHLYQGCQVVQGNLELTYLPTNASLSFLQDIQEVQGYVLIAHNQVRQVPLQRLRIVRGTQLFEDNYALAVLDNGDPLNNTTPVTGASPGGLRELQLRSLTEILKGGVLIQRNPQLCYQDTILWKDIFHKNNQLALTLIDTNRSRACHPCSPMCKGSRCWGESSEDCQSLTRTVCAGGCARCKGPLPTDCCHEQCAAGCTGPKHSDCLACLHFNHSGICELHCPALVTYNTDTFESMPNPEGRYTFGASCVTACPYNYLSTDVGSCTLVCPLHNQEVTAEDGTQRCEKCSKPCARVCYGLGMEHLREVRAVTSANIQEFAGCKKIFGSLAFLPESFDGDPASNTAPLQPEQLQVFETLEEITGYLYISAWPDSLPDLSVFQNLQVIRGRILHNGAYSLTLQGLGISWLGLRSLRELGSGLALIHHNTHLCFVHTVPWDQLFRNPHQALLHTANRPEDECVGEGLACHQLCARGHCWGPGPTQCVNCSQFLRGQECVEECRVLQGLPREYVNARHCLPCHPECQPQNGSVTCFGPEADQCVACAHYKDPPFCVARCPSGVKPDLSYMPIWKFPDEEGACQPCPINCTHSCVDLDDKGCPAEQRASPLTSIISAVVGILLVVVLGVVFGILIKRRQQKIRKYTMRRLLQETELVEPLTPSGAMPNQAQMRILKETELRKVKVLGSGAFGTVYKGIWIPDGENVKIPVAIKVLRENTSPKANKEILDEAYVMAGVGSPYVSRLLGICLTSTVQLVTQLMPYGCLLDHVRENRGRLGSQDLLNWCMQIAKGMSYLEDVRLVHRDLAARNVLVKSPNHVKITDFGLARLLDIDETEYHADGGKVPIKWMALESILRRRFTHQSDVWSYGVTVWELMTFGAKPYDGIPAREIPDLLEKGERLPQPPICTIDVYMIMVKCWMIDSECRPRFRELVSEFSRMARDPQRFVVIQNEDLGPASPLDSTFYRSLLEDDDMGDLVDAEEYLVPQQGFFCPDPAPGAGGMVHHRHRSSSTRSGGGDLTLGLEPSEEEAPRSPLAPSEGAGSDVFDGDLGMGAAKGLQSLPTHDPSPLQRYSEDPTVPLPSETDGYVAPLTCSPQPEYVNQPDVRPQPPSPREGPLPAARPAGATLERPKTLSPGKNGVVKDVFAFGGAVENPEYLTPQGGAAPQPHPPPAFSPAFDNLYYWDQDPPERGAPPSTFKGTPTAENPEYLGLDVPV

Consider `CCc1nc(-c2cccc(NC(=O)c3c(F)cccc3F)c2)c(-c2ccnc(Nc3ccc(OCCN4CCCC4)c(F)c3)n2)s1` [Example 117, N-[3-(2-Ethyl-5-{2-[(3-fluoro-4-{[2-(1-pyrrolidinyl)ethyl]oxy}phenyl)amino]-4-pyrimidinyl}-1,3-thiazol-4-yl)phenyl]-2,6-difluorobenzamide], for which the IC50 (commonly the concentration needed to halve the response being measured) was above 1000 nM with Colo205 tumor cells; above 1000 nM in the test on SK-MEL-28 tumor cells; below 100 nM at EGFR; 100 to 1000 nM in the test on BT474 tumor cells; below 100 nM on ErbB2.

As to `CC(C)(C)S(=O)(=O)Cc1nc(-c2cccc(NC(=O)c3c(F)cccc3F)c2)c(-c2ccnc(Nc3ccc(OCCN4CCCC4)c(Cl)c3)n2)s1` [Example 119], the IC50 in the test on Colo205 tumor cells is 100 to 1000 nM; in the test with SK-MEL-28 tumor cells it was above 1000 nM; on EGFR, below 100 nM; in the test on BT474 tumor cells it was 100 to 1000 nM; on ErbB2, below 100 nM.

For `CN1CCc2ccc(Nc3nccc(-c4sc(CS(=O)(=O)C(C)(C)C)nc4-c4cccc(NC(=O)c5c(F)cccc5F)c4)n3)cc2C1` [Example 120, N-[3-(2-{[(1,1-Dimethylethyl)sulfonyl]methyl}-5-{2-[(2-methyl-1,2,3,4-tetrahydro-7-isoquinolinyl)amino]-4-pyrimidinyl}-1,3-thiazol-4-yl)phenyl]-2,6-difluorobenzamide], the IC50 in the test on Colo205 tumor cells was 100 to 1000 nM; with SK-MEL-28 tumor cells, above 1000 nM; on EGFR, below 100 nM; in the test with BT474 tumor cells it was below 100 nM; at ErbB2, below 100 nM.

As for `CC(C)c1nc(-c2cccc(NC(=O)c3c(F)cccc3F)c2)c(-c2ccnc(Nc3cccc(OCCN(C)C)c3)n2)s1` [Example 122], the half-inhibitory concentration (IC50) is above 1000 nM in the test on Colo205 tumor cells; above 1000 nM in the test on SK-MEL-28 tumor cells; below 100 nM on EGFR; 100 to 1000 nM in the test on BT474 tumor cells; below 100 nM at ErbB2.

Take `CC(C)(C)c1nc(-c2cccc(NC(=O)c3c(F)cccc3F)c2)c(-c2ccnc(Nc3cccc(CN4CCCC4)c3)n2)s1` [Example 123, N-{3-[2-(1,1-Dimethylethyl)-5-(2-{[3-(1-pyrrolidinylmethyl)phenyl]amino}-4-pyrimidinyl)-1,3-thiazol-4-yl]phenyl}-2,6-difluorobenzamide]: the IC50 is above 1000 nM in the test with Colo205 tumor cells; above 1000 nM with SK-MEL-28 tumor cells; below 100 nM on EGFR; 100 to 1000 nM in the test on BT474 tumor cells; below 100 nM at ErbB2.

Consider `CN1CCC(c2nc(-c3cccc(NC(=O)c4c(F)cccc4F)c3)c(-c3ccnc(Nc4ccc5c(c4)CN(C)CC5)n3)s2)CC1` [Example 125, 2,6-Difluoro-N-[3-(2-(1-methyl-4-piperidinyl)-5-{2-[(2-methyl-1,2,3,4-tetrahydro-7-isoquinolinyl)amino]-4-pyrimidinyl}-1,3-thiazol-4-yl)phenyl]benzamide], for which the IC50 in the test on Colo205 tumor cells was 100 to 1000 nM; in the test on SK-MEL-28 tumor cells, 100 to 1000 nM; on EGFR it was below 100 nM; in the test with BT474 tumor cells, 100 to 1000 nM; on ErbB2, below 100 nM.

With `Cc1nc(-c2cccc(NC(=O)Nc3ccc(Cl)c(C(F)(F)F)c3)c2)c(-c2ccnc(Nc3ccc4c(c3)CN(C)CC4)n2)s1` [Example 129], the IC50 is 100 to 1000 nM in the test on Colo205 tumor cells; above 1000 nM in the test on SK-MEL-28 tumor cells; 100 to 1000 nM on EGFR; above 1000 nM with BT474 tumor cells; below 100 nM at ErbB2.

For the molecule `COc1ccccc1C(=O)Nc1cccc(-c2nc(C)sc2-c2ccnc(Nc3ccc4c(c3)CN(C)CC4)n2)c1` [Example 130, N-[3-(2-Methyl-5-{2-[(2-methyl-1,2,3,4-tetrahydro-7-isoquinolinyl)amino]-4-pyrimidinyl}-1,3-thiazol-4-yl)phenyl]-2-(methyloxy)benzamide], the IC50 in the test on Colo205 tumor cells was above 1000 nM; in the test on SK-MEL-28 tumor cells, above 1000 nM; at EGFR, below 100 nM; in the test with BT474 tumor cells it was above 1000 nM; at ErbB2, below 100 nM.

For the molecule `COc1cccc(C(=O)Nc2cccc(-c3nc(C)sc3-c3ccnc(Nc4ccc5c(c4)CN(C)CC5)n3)c2)c1` [Example 132, N-[3-(2-Methyl-5-{2-[(2-methyl-1,2,3,4-tetrahydro-7-isoquinolinyl)amino]-4-pyrimidinyl}-1,3-thiazol-4-yl)phenyl]-3-(methyloxy)benzamide trifluoroacetate], the IC50 was above 1000 nM in the test on Colo205 tumor cells; above 1000 nM with SK-MEL-28 tumor cells; below 100 nM at EGFR; 100 to 1000 nM in the test with BT474 tumor cells; below 100 nM on ErbB2.

On to `Cc1nc(-c2cccc(NC(=O)Nc3ccc(Cl)c(C(F)(F)F)c3)c2)c(-c2ccnc(Nc3ccc(OCCN(C)C)c(Cl)c3)n2)s1` [Example 133, N-[3-(5-{2-[(3-Chloro-4-{[2-(dimethylamino)ethyl]oxy}Phenyl)amino]-4-pyrimidinyl}-2-methyl-1,3-thiazol-4-yl)phenyl]-N′-[4-chloro-3-(trifluoromethyl)phenyl]urea], for which the IC50 is 100 to 1000 nM in the test with Colo205 tumor cells; 100 to 1000 nM with SK-MEL-28 tumor cells; 100 to 1000 nM at EGFR; above 1000 nM in the test on BT474 tumor cells; 100 to 1000 nM on ErbB2.
